Experimental data taken from PubChem BioAssay (NCI).
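All cell lines were grown in 96-well plates and treated with compound for 48 hours. TGI marks complete inhibition of growth.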

How the values were obtained:
Experiment in all cases: inhibition of tumour cell growth, NCI panel, 48 h
CCRF-CEM leukemia = test system: CCRF-CEM leukemia
NCI-H23 lung = test system: NCI-H23 lung
OVCAR-4 ovarian = test system: OVCAR-4 ovarian
HCT-116 colon = test system: HCT-116 colon
HS 578T breast = test system: HS 578T breast
KM12 colon = test system: KM12 colon
SR leukemia = test system: SR leukemia
ACHN renal = test system: ACHN renal
MOLT-4 leukemia = test system: MOLT-4 leukemia
A498 renal = test system: A498 renal
SN12C renal = test system: SN12C renal
MDA-N = test system: MDA-N
SW-620 colon = test system: SW-620 colon
SF-268 CNS = test system: SF-268 CNS
PC-3 prostate = test system: PC-3 prostate
SNB-75 CNS = test system: SNB-75 CNS
UACC-62 melanoma = test system: UACC-62 melanoma
SK-MEL-2 melanoma = test system: SK-MEL-2 melanoma
LOX IMVI melanoma = test system: LOX IMVI melanoma
U251 CNS = test system: U251 CNS
SNB-19 CNS = test system: SNB-19 CNS
OVCAR-5 ovarian = test system: OVCAR-5 ovarian
HL-60(TB) leukemia = test system: HL-60(TB) leukemia
SK-MEL-28 melanoma = test system: SK-MEL-28 melanoma
HT29 colon = test system: HT29 colon
EKVX NSCLC = test system: EKVX NSCLC
DU-145 prostate = test system: DU-145 prostate
RPMI-8226 leukemia = test system: RPMI-8226 leukemia
MDA-MB-435 = test system: MDA-MB-435
MDA-MB-231 breast = test system: MDA-MB-231 breast
NCI-H522 lung = test system: NCI-H522 lung
K-562 leukemia = test system: K-562 leukemia
UO-31 renal = test system: UO-31 renal
MCF7 breast = test system: MCF7 breast
SK-MEL-5 melanoma = test system: SK-MEL-5 melanoma
TK-10 renal = test system: TK-10 renal
NCI/ADR-RES ovarian = test system: NCI/ADR-RES ovarian
HCT-15 colon = test system: HCT-15 colon
A549 NSCLC = test system: A549 NSCLC
OVCAR-8 ovarian = test system: OVCAR-8 ovarian
MALME-3M melanoma = test system: MALME-3M melanoma
HOP-92 NSCLC = test system: HOP-92 NSCLC
SK-OV-3 ovarian = test system: SK-OV-3 ovarian
SF-295 CNS = test system: SF-295 CNS
786-0 renal = test system: 786-0 renal
IGROV1 ovarian = test system: IGROV1 ovarian
NCI-H226 lung = test system: NCI-H226 lung
COLO 205 colon = test system: COLO 205 colon
OVCAR-3 ovarian = test system: OVCAR-3 ovarian
M14 melanoma = test system: M14 melanoma
HOP-62 NSCLC = test system: HOP-62 NSCLC

## CN(C)CCNC(=O)c1cccc2c(NCC(=O)O)c3ccccc3nc12
CCRF-CEM leukemia
  TGI: > 100 µM
NCI-H23 lung
  TGI: 45.1 µM
OVCAR-4 ovarian
  TGI: 30.9 µM
HCT-116 colon
  TGI: 67.4 µM
HS 578T breast
  TGI: 50.7 µM
KM12 colon
  TGI: 60.7 µM
SR leukemia
  TGI: > 100 µM
ACHN renal
  TGI: > 100 µM
MOLT-4 leukemia
  TGI: > 100 µM
A498 renal
  TGI: 57.9 µM
SN12C renal
  TGI: > 100 µM
MDA-N
  TGI: > 100 µM
SW-620 colon
  TGI: > 100 µM
SF-268 CNS
  TGI: 33.4 µM
PC-3 prostate
  TGI: 55.2 µM
SNB-75 CNS
  TGI: 64 µM
UACC-62 melanoma
  TGI: 48.1 µM
SK-MEL-2 melanoma
  TGI: 37.4 µM
LOX IMVI melanoma
  TGI: > 100 µM
U251 CNS
  TGI: > 100 µM
SNB-19 CNS
  TGI: 72.1 µM
OVCAR-5 ovarian
  TGI: > 100 µM
HL-60(TB) leukemia
  TGI: > 100 µM
SK-MEL-28 melanoma
  TGI: 52.6 µM
HT29 colon
  TGI: 17.7 µM
EKVX NSCLC
  TGI: 56.4 µM
DU-145 prostate
  TGI: > 100 µM
RPMI-8226 leukemia
  TGI: > 100 µM
MDA-MB-435
  TGI: 32.9 µM
MDA-MB-231 breast
  TGI: 69.5 µM
NCI-H522 lung
  TGI: 35.3 µM
K-562 leukemia
  TGI: > 100 µM
UO-31 renal
  TGI: > 100 µM
MCF7 breast
  TGI: 27.8 µM
SK-MEL-5 melanoma
  TGI: 67.3 µM
TK-10 renal
  TGI: > 100 µM
NCI/ADR-RES ovarian
  TGI: 48.2 µM
HCT-15 colon
  TGI: > 100 µM
A549 NSCLC
  TGI: 53.5 µM
OVCAR-8 ovarian
  TGI: 38.5 µM
MALME-3M melanoma
  TGI: 35.9 µM
HOP-92 NSCLC
  TGI: > 100 µM
SK-OV-3 ovarian
  TGI: > 100 µM
SF-295 CNS
  TGI: 29.8 µM
786-0 renal
  TGI: 62.7 µM
IGROV1 ovarian
  TGI: > 100 µM
NCI-H226 lung
  TGI: 30.9 µM
COLO 205 colon
  TGI: > 100 µM
OVCAR-3 ovarian
  TGI: > 100 µM
M14 melanoma
  TGI: 52.2 µM
HOP-62 NSCLC
  TGI: 82.5 µM
